“Also recorded” adds a separate entry of the source.
What was measured:
gamma-secretase [1] = target: T1, gamma-secretase (Homo sapiens, UniProt P49768); test: Confocal laser scanning microscopy of subcellular distribution of APP-CTF-YFP in HEK293 cells expressing SPA4CT-YFP; format: cell-based; details: 6 h
T1 construct: HEK293 expressing SPA4CT-YFP were spread into a 96-well dish and were treated with NSAIDs or controls for 6 h; endogenous in cells; host or cells: HEK293 (ATCC CRL-1573)
Experimental: HEK293 cells were transiently transfected with SPA4CT-YFP. After 24 h, cells were treated with varying concentrations (indicated in the figures) of different NSAIDs, gamma-secretase inhibitor N-[N-(3,5-difluorophenacetyl-L-alanyl)]-S-phenylglycine t-butyl ester (DAPT) or vehicle control for 6 h. The subcellular distribution of APP-CTF-YFP within living cells was analyzed by confocal laser scanning microscopy (LSM).
(i) Cells expressing a fusion protein comprising the substrate of gamma-secretase (APP-CTF) and a fluorescent protein (fp) are incubated with the drug candidate in a 96 well plate. Prior to addition to the cells, the drug is dissolved in EtOH or DMSO. Controls are (1) untreated culture medium, (2) culture medium containing EtOH or DMSO, and (3) culture medium with known inhibitors of gamma-secretase. After incubation for 6 h to 24 hours the fluorescence is determined. If gamma-secretase is active, the fusion protein is degraded and the fluorescent protein spreads in the cell, e.g., the cell cytoplasm. As a consequence, intensive fluorescence is not detectable. If the gamma-secretase is inhibited, the substrate of gamma-secretase accumulates at the plasma membrane resulting in an intensive (and traceable) fluorescence (see, for further experimental details and results FIGS. 1 and 1.II and the figure legend). […]

gamma-secretase [2] = target: T1, gamma-secretase; test: Quantification of gamma-secretase inhibition: average YFP fluorescence of HEK293 cells expressing APP-CTF-YFP; format: cell-based; details: 6 h
Experimental: To quantify the effects of NSAIDs on gamma-secretase activity, HEK293 expressing SPA4CT-YFP were spread into a 96-well dish and were treated with NSAIDs or controls for 6 h. Intensity of YFP fluorescence was quantified with adjusted filters in a 96-well fluorescence reader (company BertholdTech, Mithras). (i) Cells expressing a fusion protein comprising the substrate of gamma-secretase (APP-CTF) and a fluorescent protein (fp) are incubated with the drug candidate in a 96 well plate. Prior to addition to the cells, the drug is dissolved in EtOH or DMSO. Controls are (1) untreated culture medium, (2) culture medium containing EtOH or DMSO, and (3) culture medium with known inhibitors of gamma-secretase. After incubation for 6 h to 24 hours the fluorescence is determined. If gamma-secretase is active, the fusion protein is degraded and the fluorescent protein spreads in the cell, e.g., the cell cytoplasm. As a consequence, intensive fluorescence is not detectable. If the gamma-secretase is inhibited, the substrate of gamma-secretase accumulates at the plasma membrane resulting in an intensive (and traceable) fluorescence (see, for further experimental details and results FIGS. 1 and 1.II and the figure legend). Drug candidates which inhibit the biological activity (i.e. cleavage of the substrate) of gamma-secretase are discarded.

SH-SY5Y cells = test: MTS assay of viable SH-SY5Y cells for determination of cytotoxicity; format: cell-based, human; details: 24 h
Experimental: SH-SY5Y cells expressing SPA4CT wt were spread at a density of 30.000 cells per 96-well. The cell culture media (OptiMEM, Invitrogen or serum containing medium, Biochrom) were supplemented with NSAIDs in varying concentrations as well as positive controls (without treatment or vehicle control) and negative controls (0.01% to 0.5% Triton X-100). Each well was incubated with 100 μl of supplemented media for 24 h. Then, 20 μl of the MTS stain solution (Promega, cell viability assay) was added and after 2-4 h incubation time the absorbance at 562 nm was measured.
(§1) (ii) Initially, the cytotoxicity of the compounds in cultures of neuronal cells is determined using a cell proliferation assay or an assay based on viable cells (FIG. 2). Then, APP-CTF, APP or APPsw (APPsw: APP with the familial AD mutation “swedish” (K670N M671L); APP-CTF: APP-C-terminal fragment; CTF: after alpha- or beta-secretase cleavage) expressing cells are incubated with the drug candidate (two different concentrations, 96 well plate format). After incubation for 6 to 24 h the amount of Abeta42 secreted from the cell culture medium is determined using ELISA (see, for further experimental details and results FIG. 3 and the figure legend). Drug candidates causing a reduction of the amount of Abeta42 are assayed in a further step comprising ELISA and MALDI-MS. First, the amounts of Abeta40 and Abeta38 (as well as additional possible Abeta species) are quantified by use of ELISA. Then, the entire spectrum of secreted Abeta species is assayed using immunoprecipitation and MALDI-MS analysis (see, for further experimental details and results FIG. 4 and the figure legend). Compounds leading to reduced amounts of Abeta42 and increased amounts of shorter Abeta species are selected and assayed in a further screening step.

[3] = target: T2, transmembrane sequence Abeta29-42 wt (Homo sapiens, UniProt P05067); test: ToxR system: dimerization of transmembrane sequence Abeta29-42 wt; format: cell-based
T2 construct: the amino acid residues 29-42 of the Abeta region ([…]); expressed in transfected cells; host or cells: E. coli FHK12
Experimental: ToxR-system E. coli FHK12 cells were transformed with accordant DNA constructs encoding for ToxR-fusionproteins containing at least a part of the APP transmembrane sequence (e.g. sequence Abeta 29-42). Cells were grown in either FHK medium or minimal medium (e.g. M9 medium) supplemented with NSAIDs and corresponding vehicle controls for 6 h. Then, aliquots of the cells were lysed and beta-galactosidase activity was measured (Langosch et al., 1996).
The second screening step is carried out in order to find compounds selectively modulating only the processing of APP via binding to the transmembrane sequence (TMS) of APP. The APP-GxxxG motif is, inter alia, a perfect target structure for selecting compounds characterized by high affinity binding (Munter et al., EMBO J. 26 (2007), 1702-12). In the bacterial assay system (ToxR system) only the transmembrane sequence of APP containing the amino acid residues 29-42 of the Abeta region (GAIIGLMVGGVVIA) is expressed as part of a fusion protein. […] The rate of transcription correlates with the degree of dimerization and can be determined by measuring the conversion of a coloured substrate. […] After incubation for 2 to 24 h the degree of dimerization is determined. Binding of compounds to the amino acid sequence Abeta 29-42 results in weakening of dimerization and this is determined by measuring the decrease of enzymatic activity. […]

[4] = system: Abeta species secreted from SH-SY5Y cells which stably express wild type APP; test: ELISA quantification of Abeta species secreted from SH-SY5Y cells stably expressing wild type APP; format: cell-based, human; details: APP wt, 6 h
Experimental: (§2) Quantification of Abeta 42, Abeta 40 and Abeta38 with ELISA Stably transfected cells were plated at a density of 2.8×10^5 cells per 12-well. The day after splitting, 200 μl of fresh media supplemented with NSAIDs or control vehicles were added and incubated for 6 h. For Abeta40 and Abeta42-specific ELISAs, 50 μl of media were analyzed according to the manufacturer's instruction (The Genetics company (TGC), Basel, Switzerland). The same protocol was applied to determine Abeta38 levels, except that the antibody BAP-29 (provided by M. Brockhaus, Roche, Basel, Switzerland) was used.
as §1

[5] = system: Abeta species from APP G33A-transfected cells; test: ELISA quantification of Abeta species secreted from APP G33A-transfected cells; format: cell-based
Experimental: as §2
The effect of the drugs on the dimerization motif GxxxG of TMS of APP is assayed. Drug candidates were added to the cell culture medium containing APP-CTF, APP or APPsw expressing neuronal cells or cells containing the APP-processing machinery as described in Example 2. In addition, cell lines were assayed expressing altered APP molecules characterized by a mutated GxxxG motif. Binding of the compounds to the APP GxxxG motif results in an altered processing only of the wild type proteins, but not the altered GxxxG motif of mutants (see, for further experimental details and results FIG. 5 and the figure legend).
Detection and characterization of the binding of the drug candidate to the GxxxG motif. Binding of the compounds to Abeta42 is verified by use of BIACORE and the KD-value is determined. Binding of the compounds to the GAIIG motif should lead to lack of binding to corresponding Abeta42-fragments or GxxxG mutant peptides. Similarly, using ELISA with synthetical peptides binding of NSAIDs can be determined via a competition assay (see, for further experimental details and results FIG. 6 and the figure legend).

Q: Which “Localization of APP-CTF-YFP (confocal images)” value (gamma-secretase [1]; 1 μM added to cell culture medium) does the source give for `C[C@H](NC(=O)Cc1cc(F)cc(F)c1)C(=O)N[C@H](C(=O)OC(C)(C)C)c1ccccc1` [DAPT, N-[N-(3,5-difluorophenacetyl-L-alanyl)]-S-phenylglycine t-butyl ester] here?
A: APP-CTF preferably accumulates at the plasma membrane

Q: And the “Average fluorescence compared to the DMSO control” value (gamma-secretase [2]; 1 μM)?
A: increased fluorescence

Q: How did the “Concentration at which compound is no longer toxic (MTS assay)” value (SH-SY5Y cells) turn out when `CC(C)OC(=O)C(C)(C)Oc1ccc(C(=O)c2ccc(Cl)cc2)cc1` [Fenofibrate] was run?
A: 5 µM

Q: `CC(C)Cc1ccc(C(C)C(=O)O)cc1` (stereo not shown) [Ibuprofen] was tested. Which “Concentration at which compound is no longer toxic (MTS assay)” value (SH-SY5Y cells) did it give?
A: 250 µM

Q: What about the “Average fluorescence compared to the DMSO control” value (gamma-secretase [2]; 50 μM) of the same molecule?
A: slight increase of fluorescence

Q: What about the “Stability of dimerization of the transmembrane sequence” value [3] of the same molecule?
A: weakens the strength of dimerization

Q: With `CSc1ccc(/C=C2/C(C)=C(CC(=O)O)c3cc(F)ccc32)cc1` [sulindac sulfide] as the molecule, how does the “Secreted amount of Abeta38” value [4] read?
A: low and does not substantially reduce

Q: And the “Secreted amount of Abeta40” value [4]?
A: low and does not substantially reduce

Q: And the “Secreted amount of Abeta42” value [4]?
A: decreases in a concentration dependent manner; also recorded: reduces

Q: And the “Concentration at which compound is no longer toxic (MTS assay)” value (SH-SY5Y cells)?
A: 150 µM

Q: And the “Localization of APP-CTF-YFP (confocal images)” value (gamma-secretase [1]; 30 μM)?
A: APP-CTF preferably accumulates at the ER/nuclear membrane

Q: What about the “Average fluorescence compared to the DMSO control” value (gamma-secretase [2]; 50 μM) of the same molecule?
A: slight increase of fluorescence

Q: And the “Stability of dimerization of the transmembrane sequence” value [3]?
A: weakens the stability of dimerization of the transmembrane sequence of Abeta29-42 in a concentration dependent manner

Q: And the “Secreted amount of Abeta38” value [5]?
A: does not substantially reduce

Q: And the “Secreted amount of Abeta40” value [5]?
A: does not substantially reduce

Q: What about the “Secreted amount of Abeta42” value [5] of the same molecule?
A: no impact

— US20100291596A1, “SCREENING METHOD FOR AGENTS SUITABLE FOR THERAPY OF ALZHEIMER'S DISEASE” (FREIE UNIVERSITAT BERLIN, priority 2007, published 2010)
